We go through three compounds from patent publication US7868188B2, “5-heteroaryl thiazoles and their use as PI3K inhibitors” (AstraZeneca AB, priority 2004, dated 2011).

Structures are written as SMILES. Where a name gives a salt, the structure may show the parent alone.

Test [1] has as its target mTOR PI kinase-related kinase (Homo sapiens, UniProt P42345). As to the kind of experiment: Test (b) In Vitro mTOR PI Kinase-Related Kinase Assay (AlphaScreen). As to conditions: read-out: IC50 versus mTOR PI kinase-related kinase. In kind it is biochemical. As for the experimental part: The assay used AlphaScreen technology (Gray et al., Analytical Biochemistry, 2003, 313: 234-245) to determine the ability of test compounds to inhibit phosphorylation by recombinant mTOR.
The HEK293 FLAG-tagged mTOR (1362-2549) stable cell line was routinely maintained at 37° C. with 5% CO2 up to a confluency of 70-90% in Dulbecco's modified Eagle's growth medium (DMEM; Invitrogen Limited, Paisley, UK Catalogue No. 41966-029) containing 10% heat-inactivated foetal calf serum (FCS; Sigma, Poole, Dorset, UK, Catalogue No. F0392), 1% L-glutamine (Gibco, Catalogue No. 25030-024) and 2 mg/ml Geneticin (G418 sulphate; Invitrogen Limited, UK Catalogue No. 10131-027). Following expression in the mammalian HEK293 cell line, expressed protein was purified using the FLAG epitope tag using standard purification techniques.
Test compounds were prepared as 10 mM stock solutions in DMSO and diluted into water as required to give a range of final assay concentrations. Aliquots (2 μl) of each compound dilution were placed into a well of a Greiner 384-well low volume (LV) white polystyrene plate (Greiner Bio-one). […]
Each reaction was stopped by the addition of 10 μl of a mixture of EDTA (50 mM), bovine serum albumin (BSA; 0.5 mg/ml) and Tris-HCl pH7.4 buffer (50 mM) containing p70 S6 Kinase (T389) 1A5 Monoclonal Antibody (Cell Signalling Technology, Catalogue No. 9206B) and AlphaScreen Streptavidin donor and Protein A acceptor beads (200 ng; Perkin Elmer, Catalogue No. 6760002B and 6760137R respectively) were added and the assay plates were left for about 20 hours at room temperature in the dark. The resultant signals arising from laser light excitation at 680 nm were read using a Packard Envision instrument.
Phosphorylated biotinylated peptide is formed in situ as a result of mTOR mediated phosphorylation. […] Upon laser light excitation at 680 nm, the donor bead: acceptor bead complex produces a signal that can be measured. […]
mTOR enzyme inhibition for a given test compound was expressed as an IC50 value.

Test [2] deals with phosphorylation of Serine 473 in Akt (MDA-MB-468 cells). As to the kind of experiment: Test (c) In Vitro phospho-Ser473 Akt Assay. The note with it: Homo sapiens, read-out: IC50 versus Serine 473 in Akt. In kind it is cell-based. Here is the method: This assay determines the ability of test compounds to inhibit phosphorylation of Serine 473 in Akt as assessed using Acumen Explorer technology (Acumen Bioscience Limited), a plate reader that can be used to rapidly quantitate features of images generated by laser-scanning.
A MDA-MB-468 human breast adenocarcinoma cell line (LGC Promochem, Teddington, Middlesex, UK, Catalogue No. HTB-132) was routinely maintained at 37° C. with 5% CO2 up to a confluency of 70-90% in DMEM containing 10% heat-inactivated FCS and 1% L-glutamine.
For the assay, the cells were detached from the culture flask using ‘Accutase’ (Innovative Cell Technologies Inc., San Diego, Calif., USA; Catalogue No. AT104) using standard tissue culture methods and resuspended in media to give 1.7×10^5 cells per ml. Aliquots (90 μl) were seeded into each of the inner 60 wells of a black Packard 96 well plate (PerkinElmer, Boston, Mass., USA; Catalogue No. 6005182) to give a density of ˜15000 cells per well. Aliquots (90 μl) of culture media were placed in the outer wells to prevent edge effects. The cells were incubated overnight at 37° C. with 5% CO2 to allow them to adhere.
On day 2, the cells were treated with test compounds and incubated for 2 hours at 37° C. with 5% CO2. Test compounds were prepared as 10 mM stock solutions in DMSO and serially diluted as required with growth media to give a range of concentrations that were 10-fold the required final test concentrations. Aliquots (10 μl) of each compound dilution were placed in a well (in triplicate) to give the final required concentrations. As a minimum response control, each plate contained wells having a final concentration of 100 μM LY294002 (Calbiochem, Beeston, UK, Catalogue No. 440202). As a maximum response control, wells contained 1% DMSO instead of test compound. Following incubation, the contents of the plates were […] by treatment with a 1.6% aqueous formaldehyde solution (Sigma, Poole, Dorset, UK, Catalogue No. F1635) at room temperature for 1 hour.
All subsequent aspiration and wash steps were carried out using a Tecan 96 well late washer (aspiration speed 10 mm/sec). The fixing solution was removed and the contents of the plates were washed with phosphate-buffered saline (PBS; 50 μl; Gibco, Catalogue No. 10010015). The contents of the plates were treated for 10 minutes at room temperature with an aliquot (50 μl) of a cell permeabilisation buffer consisting of a mixture of PBS and 0.5% Tween-20. […] An aliquot of PBS (50 μl) was added to each well and the plates were sealed with black plate sealers and the fluorescence signal was detected and analysed.
Fluorescence dose response data obtained with each compound were analysed and the degree of inhibition of Serine 473 in Akt was expressed as an IC50 value.

mTOR PI kinase-related kinase, sequence (P42345 1362-2549): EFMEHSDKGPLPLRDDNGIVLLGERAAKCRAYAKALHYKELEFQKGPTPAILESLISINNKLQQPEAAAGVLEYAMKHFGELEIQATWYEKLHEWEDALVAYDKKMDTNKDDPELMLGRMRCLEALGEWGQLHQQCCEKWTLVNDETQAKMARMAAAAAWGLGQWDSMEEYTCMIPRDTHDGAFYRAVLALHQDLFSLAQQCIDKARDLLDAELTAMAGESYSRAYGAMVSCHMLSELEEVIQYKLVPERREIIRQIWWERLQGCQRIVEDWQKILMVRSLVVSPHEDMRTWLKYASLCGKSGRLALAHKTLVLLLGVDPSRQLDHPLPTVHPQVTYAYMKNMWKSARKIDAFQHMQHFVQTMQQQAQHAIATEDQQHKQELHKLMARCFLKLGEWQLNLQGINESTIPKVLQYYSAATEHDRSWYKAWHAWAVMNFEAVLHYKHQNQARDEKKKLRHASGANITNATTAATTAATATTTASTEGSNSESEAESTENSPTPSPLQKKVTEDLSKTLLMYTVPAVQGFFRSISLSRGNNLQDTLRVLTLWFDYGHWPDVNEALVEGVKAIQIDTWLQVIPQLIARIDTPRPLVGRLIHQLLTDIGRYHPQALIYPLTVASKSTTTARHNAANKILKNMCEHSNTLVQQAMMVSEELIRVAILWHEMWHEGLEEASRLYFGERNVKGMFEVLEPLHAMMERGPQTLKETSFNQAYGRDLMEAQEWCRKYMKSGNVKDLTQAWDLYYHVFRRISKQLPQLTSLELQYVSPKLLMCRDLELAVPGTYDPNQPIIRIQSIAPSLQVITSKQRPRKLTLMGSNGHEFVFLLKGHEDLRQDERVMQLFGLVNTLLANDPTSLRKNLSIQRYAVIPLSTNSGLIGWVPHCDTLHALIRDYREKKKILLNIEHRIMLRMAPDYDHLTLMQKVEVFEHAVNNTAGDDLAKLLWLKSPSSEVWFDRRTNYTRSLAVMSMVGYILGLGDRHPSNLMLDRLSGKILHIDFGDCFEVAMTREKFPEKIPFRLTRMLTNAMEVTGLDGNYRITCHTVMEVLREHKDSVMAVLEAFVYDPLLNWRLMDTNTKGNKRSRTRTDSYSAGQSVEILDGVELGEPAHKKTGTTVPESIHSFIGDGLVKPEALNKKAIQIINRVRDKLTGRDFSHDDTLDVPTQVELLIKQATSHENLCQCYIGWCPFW

`CC(=O)Nc1nc(C)c(-c2cnc(Cl)c(NCc3ccc(F)cc3)c2)s1` [Compound No. 3 within Example 79, N-{5-[6-Chloro-5-(4-fluorobenzylamino)pyridin-3-yl]-4-methyl-1,3-thiazol-2-yl}acetamide]: the IC50 was ~2 µM in test [1] and ~0.2 µM in test [2].
For `CC(=O)Nc1nc(C)c(-c2cnc(Cl)c(S(=O)(=O)Nc3ccccc3)c2)s1` [Compound No. 4 within Example 73, N-{5-[6-Chloro-5-(N-phenylsulfamoyl)pyridin-3-yl]-4-methyl-1,3-thiazol-2-yl]acetamide] the same measures were ~0.7 µM and ~0.2 µM.
Turning to `CC(=O)Nc1nc(C)c(-c2cnc(Cl)c(NS(C)(=O)=O)c2)s1` [Example 28, N-[5-(6-Chloro-5-methylsulfonylaminopyridin-3-yl)-4-methyl-1,3-thiazol-2-yl]acetamide trifluoroacetate], the 50% inhibitory concentration (IC50) in test [1] was ~0.02 µM; in test [2] it was ~0.3 µM.

The IC50 is the concentration needed to halve the response being measured.
